This note sets out measurements from patent publication US20250354223A1, “METHODS AND KITS FOR D[…] SUSCEPTIBILITY” (Siemens Healthcare Diagnostics Inc., priority 2022, published 2025).

Holding throughout (type): cell-based
Test [1] concerns E. coli. Put plainly: PCR of extracted DNA with 16SrDNA specific primers, with vs without antibiotic (no EMA). The conditions noted are these: ampicillin-susceptible E. coli, 1×10^6 cells/mL, ampicillin 100 μg/mL, 37° C. How it is done: (§1) Overnight E. coli culture that was susceptible to ampicillin was further sub-cultured for 2-3 hours to log phase. Cells in this culture were quantified using OD600nm values. The culture was diluted to 1×10^6 cells/mL and 10 mL was aliquoted into two, 50 ml conical flask. Ampicillin at 100 μg/mL was added to one of the conical flasks. The two flasks, with and without antibiotic were incubated at 37° C. and two, 50 μL aliquots were taken from each flask at regular intervals (0, 30, 40 and 60 mins). Nucleic acid (NA) was extracted from all sample aliquots using the VERSANT® brand Sample preparation 1.0 reagent kit. The NA samples were then subjected to PCR and RT-PCR (reverse transcription-PCR) using 16SrDNA specific primers (each DNA extracted sample was split into two replicates for PCR). […] In this experiment, all RNA samples were treated with DNAse for 60 min at 37° C. before RT-PCR. In a subsequent experiment it was shown that a treatment as low as 5 minutes was also sufficient to eliminate DNA from the sample.
Overnight E. coli culture that was susceptible to ampicillin was further sub-cultured for 2-3 hours to log phase. Cells in this culture was quantified using OD600nm values. The culture was diluted to 1×10^6 cells/mL and 10 mL was aliquoted into two, 50 ml conical flasks. Ampicillin at 100 μg/mL was added to one of the conical flasks. […]

For test [2], the system named is E. coli. The experiment in a line: RT-PCR of extracted RNA with 16SrDNA specific primers, with vs without antibiotic. The conditions noted are these: ampicillin-susceptible E. coli, 1×10^6 cells/mL, ampicillin 100 μg/mL, 37° C., 60 minutes; FIG. 10 table 1. How it is done:
as §1

The test system of test [3] is E. coli. Put plainly: EMA (ethidium monoazide) + blue light treatment followed by PCR with 16SrDNA specific primers, with vs without antibiotic. How it is done:
FIG. 3 illustrates a method of determining antibiotic susceptibility of micro-organisms, according to yet another embodiment. At step 301, the sample comprising the micro-organism is received. At step 302, at least one first portion of the sample is incubated with an antibiotic and at least one second portion of the sample is incubated with no antibiotic. The micro-organisms in the sample are required to be grown/cultured or incubated for the shortest possible time in which discernible nucleic acid differences can be measured. For example, the micro-organisms are cultured or incubated for a range of at least one to five doubling cycles. Antibiotics which are cell wall synthesis inhibitors (beta lactam) and cell membrane inhibitors (colistin) affect the integrity of cell wall of the micro-organisms. This facilitates determination of antibiotic susceptibility. Once the doubling cycle range is met for the at least one first and second portion of the sample, at step 303, an intercalating dye is introduced to the at least one first portion of the sample and the at least one second portion of the sample. […]
Overnight E. coli culture that was susceptible to ampicillin was further sub-cultured for 2-3 hours to log phase. Cells in this culture was quantified using OD600nm values. […]

Molecules are shown by their SMILES.

For `CC1(C)S[C@@H]2[C@H](NC(=O)[C@H](N)c3ccccc3)C(=O)N2[C@H]1C(=O)O` [ampicillin], the “distinction of antibiotic and no antibiotic samples by DNA levels” value with E. coli [1] (60 min incubation, FIG. 10 table 2) was “did not distinguish antibiotic and no antibiotic samples”. Moreover, the “difference in Ct between ampicillin exposed and unexposed, samples not exposed to EMA+blue light” value with E. coli [1] (up to 30 mins, no EMA, FIG. 14 table 2) is “did not show any difference”. Further, the “detection of ampicillin susceptibility by RNA levels” value in the test on E. coli [2] is reported as “able to detect for ampicillin susceptibility at 60 minutes”. Besides, in the test on E. coli [3] (FIG. 4, graph 402 (ampicillin and EMA) vs graph 401 (ampicillin only)), the “effect of including EMA on the difference in cycle threshold values between first (ampicillin) and second (no ampicillin) portion” value is “improves the difference in the cycle threshold values”. Further, the “difference in Ct between ampicillin exposed and unexposed, samples exposed to EMA” value with E. coli [3] (ampicillin-susceptible E. coli, 1×10^6 cells/mL, ampicillin 100 μg/mL, 37° C., within 30 minutes, EMA + blue LED light, FIG. 14 table 1) is “large difference in Ct”.
